Measurements as given in PubChem BioAssay (NCI).
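A five-concentration, 48-hour dose response in 96-well plates underlies each endpoint, interpolated linearly between surrounding concentrations. Here, GI50 denotes the concentration required for 50% inhibition of growth. TGI is the concentration that stops growth completely.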

Legend:
Test in all cases: NCI-60 cell line screen, 48 h
[1] = system: 786-0 renal
[2] = system: A498 renal
[3] = system: A549 NSCLC
[4] = system: ACHN renal
[5] = system: BT-549 breast
[6] = system: CAKI-1 renal
[7] = system: COLO 205 colon
[8] = system: DU-145 prostate
[9] = system: EKVX NSCLC
[10] = system: HCT-116 colon
[11] = system: HCT-15 colon
[12] = system: HL-60(TB) leukemia
[13] = system: HOP-62 NSCLC
[14] = system: HS 578T breast
[15] = system: HT29 colon
[16] = system: IGROV1 ovarian
[17] = system: K-562 leukemia
[18] = system: KM12 colon
[19] = system: LOX IMVI melanoma
[20] = system: M14 melanoma
[21] = system: MALME-3M melanoma
[22] = system: MDA-MB-231 breast
[23] = system: MDA-MB-435
[24] = system: MOLT-4 leukemia
[25] = system: NCI-H23 lung
[26] = system: NCI-H460 lung
[27] = system: NCI-H522 lung
[28] = system: NCI/ADR-RES ovarian
[29] = system: OVCAR-3 ovarian
[30] = system: OVCAR-4 ovarian
[31] = system: OVCAR-5 ovarian
[32] = system: OVCAR-8 ovarian
[33] = system: SF-268 CNS
[34] = system: SF-295 CNS
[35] = system: SF-539 CNS
[36] = system: SK-MEL-2 melanoma
[37] = system: SK-MEL-5 melanoma
[38] = system: SK-OV-3 ovarian
[39] = system: SN12C renal
[40] = system: SNB-19 CNS
[41] = system: SNB-75 CNS
[42] = system: SW-620 colon
[43] = system: T-47D breast
[44] = system: TK-10 renal
[45] = system: U251 CNS
[46] = system: UACC-257 melanoma
[47] = system: UACC-62 melanoma
[48] = system: UO-31 renal

Compound: Cc1ccc(Nn2c(SCC(=O)Nc3nc(-c4ccccc4)cs3)nc(C)c2C)cc1
- GI50 [1]: 4.41 µM
- TGI [1]: > 100 µM
- GI50 [2]: 17.4 µM
- TGI [2]: > 100 µM
- GI50 [3]: 3.03 µM
- TGI [3]: > 100 µM
- GI50 [4]: 4.06 µM
- TGI [4]: 62.9 µM
- GI50 [5]: 3.18 µM
- TGI [5]: 14.1 µM
- GI50 [6]: 1860 nM
- TGI [6]: 6.1 µM
- GI50 [7]: 3.98 µM
- TGI [7]: 34.4 µM
- GI50 [8]: 9.75 µM
- TGI [8]: 64.6 µM
- GI50 [9]: 1390 nM
- TGI [9]: 5.61 µM
- GI50 [10]: 2820 nM
- TGI [10]: 26.5 µM
- GI50 [11]: 5.17 µM
- TGI [11]: > 100 µM
- GI50 [12]: 4.64 µM
- TGI [12]: 39.1 µM
- GI50 [13]: 18.4 µM
- TGI [13]: > 100 µM
- GI50 [14]: 34.1 µM
- TGI [14]: > 100 µM
- GI50 [15]: 4.37 µM
- TGI [15]: 28.2 µM
- GI50 [16]: 4.59 µM
- TGI [16]: > 100 µM
- GI50 [17]: 3.62 µM
- TGI [17]: > 100 µM
- GI50 [18]: 4.13 µM
- TGI [18]: 19.1 µM
- GI50 [19]: 3.32 µM
- TGI [19]: 19.3 µM
- GI50 [20]: 3.7 µM
- TGI [20]: 48.6 µM
- GI50 [21]: 2480 nM
- TGI [21]: 13.6 µM
- GI50 [22]: 3.34 µM
- TGI [22]: > 100 µM
- GI50 [23]: 2660 nM
- TGI [23]: 9.54 µM
- GI50 [24]: 3.46 µM
- TGI [24]: > 100 µM
- GI50 [25]: 3.42 µM
- TGI [25]: > 100 µM
- GI50 [26]: 3.88 µM
- TGI [26]: 16.5 µM
- GI50 [27]: 2970 nM
- TGI [27]: 86.8 µM
- GI50 [28]: 3.04 µM
- TGI [28]: 22.2 µM
- GI50 [29]: 8.24 µM
- TGI [29]: > 100 µM
- GI50 [30]: 2130 nM
- TGI [30]: > 100 µM
- GI50 [31]: 17.2 µM
- TGI [31]: > 100 µM
- GI50 [32]: 3.79 µM
- TGI [32]: > 100 µM
- GI50 [33]: 9.1 µM
- TGI [33]: > 100 µM
- GI50 [34]: 1060 nM
- TGI [34]: 5.89 µM
- GI50 [35]: 4.68 µM
- TGI [35]: 35.2 µM
- GI50 [36]: 7.58 µM
- TGI [36]: 35.3 µM
- GI50 [37]: 2000 nM
- TGI [37]: 5.72 µM
- GI50 [38]: 10.6 µM
- TGI [38]: > 100 µM
- GI50 [39]: 3.2 µM
- TGI [39]: 14.2 µM
- GI50 [40]: 7.5 µM
- TGI [40]: > 100 µM
- GI50 [41]: 2810 nM
- TGI [41]: > 100 µM
- GI50 [42]: 8.3 µM
- TGI [42]: > 100 µM
- GI50 [43]: 1850 nM
- TGI [43]: 10.4 µM
- GI50 [44]: 18.9 µM
- TGI [44]: > 100 µM
- GI50 [45]: 4.5 µM
- TGI [45]: > 100 µM
- GI50 [46]: 2120 nM
- TGI [46]: 9.29 µM
- GI50 [47]: 3.15 µM
- TGI [47]: > 100 µM
- GI50 [48]: 2890 nM
- TGI [48]: > 100 µM
